PubChem BioAssay AID1845200 (Molecular Pharmacology Branch, DTP, NCI, 2023)

Tested on: ASPS-1 complex tumor spheroids, viability
Assay: Anticancer human tumor ASPS-1 cell line growth inhibition;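 also: spheroids exposed to agents for 7 days after 3 days of growth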;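 as to viability, T/C: 100% = DMSO vehicle treated spheroids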
Conditions: for IC50: curve of first compound; for viability, T/C: stronger effect = lower value
How it was run: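 Complex spheroids of malignant cells with endothelial cells and mesenchymal stem cells; agents alone or combined, from near clinical Cmax (or 10 microM if unknown) down in half-log steps, 0.25% DMSO final.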

[1] = second compound 30 pM, first compound 0.0316 µM
[2] = second compound 30 pM, first compound 0.1 µM
[3] = second compound 30 pM, first compound 0.316 µM
[4] = second compound 30 pM, first compound 1 µM
[5] = second compound 30 pM, first compound 3.16 µM
[6] = second compound 30 pM, first compound 10 µM
[7] = second compound 94.9 pM, first compound 0.0316 µM
[8] = second compound 94.9 pM, first compound 0.1 µM
[9] = second compound 94.9 pM, first compound 0.316 µM
[10] = second compound 94.9 pM, first compound 1 µM
[11] = second compound 94.9 pM, first compound 3.16 µM
[12] = second compound 94.9 pM, first compound 10 µM
[13] = second compound 0.0003 µM, first compound 0.0316 µM
[14] = second compound 0.0003 µM, first compound 0.1 µM
[15] = second compound 0.0003 µM, first compound 0.316 µM
[16] = second compound 0.0003 µM, first compound 1 µM
[17] = second compound 0.0003 µM, first compound 3.16 µM
[18] = second compound 0.0003 µM, first compound 10 µM
[19] = second compound 0.000949 µM, first compound 0.0316 µM
[20] = second compound 0.000949 µM, first compound 0.1 µM
[21] = second compound 0.000949 µM, first compound 0.316 µM
[22] = second compound 0.000949 µM, first compound 1 µM
[23] = second compound 0.000949 µM, first compound 3.16 µM
[24] = second compound 0.000949 µM, first compound 10 µM
[25] = second compound 0.003 µM, first compound 0.0316 µM
[26] = second compound 0.003 µM, first compound 0.1 µM
[27] = second compound 0.003 µM, first compound 0.316 µM
[28] = second compound 0.003 µM, first compound 1 µM
[29] = second compound 0.003 µM, first compound 3.16 µM
[30] = second compound 0.003 µM, first compound 10 µM

CC1COCCN1c1cc(-c2ccnn2C)c2ccnc(-c3ccn[nH]3)c2n1 (stereo not given) + COc1cc2c(cc1O)CCNC21CSC2c3c(OC(C)=O)c(C)c4c(c3C(COC1=O)N1C(O)C3Cc5cc(C)c(OC)c(O)c5C(C21)N3C)OCO4
IC50 (second compound 30 pM): 0.156 µM | IC50 (second compound 94.9 pM): 0.102 µM | IC50 (second compound 0.0003 µM): < 0.0316 µM | IC50 (second compound 0.000949 µM): < 0.0316 µM | IC50 (second compound 0.003 µM): < 0.0316 µM | viability, T/C [1]: 81.9% | viability, T/C [2]: 53.9% | viability, T/C [3]: 43.1% | viability, T/C [4]: 42.9% | viability, T/C [5]: 40.7% | viability, T/C [6]: 38.9% | viability, T/C [7]: 71.7% | viability, T/C [8]: 50.1% | viability, T/C [9]: 37.5% | viability, T/C [10]: 38.5% | viability, T/C [11]: 40.6% | viability, T/C [12]: 41% | viability, T/C [13]: 46.4% | viability, T/C [14]: 37% | viability, T/C [15]: 32% | viability, T/C [16]: 30.1% | viability, T/C [17]: 43% | viability, T/C [18]: 38.3% | viability, T/C [19]: 27.4% | viability, T/C [20]: 25% | viability, T/C [21]: 21.3% | viability, T/C [22]: 25.9% | viability, T/C [23]: 18.1% | viability, T/C [24]: 13.9% | viability, T/C [25]: 11.5% | viability, T/C [26]: 10.2% | viability, T/C [27]: 8.78% | viability, T/C [28]: 5.28% | viability, T/C [29]: 0.36% | viability, T/C [30]: 0.46%

COc1cc(C)[nH]c(=O)c1CN1CCc2c(Cl)cc(C(OC)C3COC3)c(Cl)c2C1=O (stereo not given) + COc1cc2c(cc1O)CCNC21CSC2c3c(OC(C)=O)c(C)c4c(c3C(COC1=O)N1C(O)C3Cc5cc(C)c(OC)c(O)c5C(C21)N3C)OCO4
IC50 (second compound 30 pM): > 10 µM | IC50 (second compound 94.9 pM): > 10 µM | IC50 (second compound 0.0003 µM): > 10 µM | IC50 (second compound 0.000949 µM): > 10 µM | IC50 (second compound 0.003 µM): < 0.0316 µM | viability, T/C [1]: 107% | viability, T/C [2]: 103% | viability, T/C [3]: 100% | viability, T/C [4]: 108% | viability, T/C [5]: 102% | viability, T/C [6]: 101% | viability, T/C [7]: 98.7% | viability, T/C [8]: 103% | viability, T/C [9]: 103% | viability, T/C [10]: 101% | viability, T/C [11]: 100% | viability, T/C [12]: 99.2% | viability, T/C [13]: 98% | viability, T/C [14]: 102% | viability, T/C [15]: 98.7% | viability, T/C [16]: 95% | viability, T/C [17]: 96.1% | viability, T/C [18]: 93.2% | viability, T/C [19]: 77.7% | viability, T/C [20]: 73.6% | viability, T/C [21]: 72.1% | viability, T/C [22]: 64.7% | viability, T/C [23]: 68.2% | viability, T/C [24]: 56% | viability, T/C [25]: 19.5% | viability, T/C [26]: 21.6% | viability, T/C [27]: 23.1% | viability, T/C [28]: 18.3% | viability, T/C [29]: 19% | viability, T/C [30]: 10.5%

Cc1cc(C)c(CNC(=O)c2cc(-c3ccc(CN4CCOCC4)cc3)cc3c2cnn3C2CCCC2)c(=O)[nH]1 + COc1cc2c(cc1O)CCNC21CSC2c3c(OC(C)=O)c(C)c4c(c3C(COC1=O)N1C(O)C3Cc5cc(C)c(OC)c(O)c5C(C21)N3C)OCO4
IC50 (second compound 30 pM): > 10 µM | IC50 (second compound 94.9 pM): > 10 µM | IC50 (second compound 0.0003 µM): > 10 µM | IC50 (second compound 0.000949 µM): 0.273 µM | IC50 (second compound 0.003 µM): < 0.0316 µM | viability, T/C [1]: 103% | viability, T/C [2]: 97.4% | viability, T/C [3]: 102% | viability, T/C [4]: 104% | viability, T/C [5]: 96.9% | viability, T/C [6]: 84.4% | viability, T/C [7]: 105% | viability, T/C [8]: 97.8% | viability, T/C [9]: 98.7% | viability, T/C [10]: 99.5% | viability, T/C [11]: 93.5% | viability, T/C [12]: 76.8% | viability, T/C [13]: 92% | viability, T/C [14]: 96.2% | viability, T/C [15]: 92.8% | viability, T/C [16]: 86.2% | viability, T/C [17]: 80.1% | viability, T/C [18]: 63.1% | viability, T/C [19]: 56.8% | viability, T/C [20]: 75.2% | viability, T/C [21]: 39.9% | viability, T/C [22]: 31.6% | viability, T/C [23]: 24.5% | viability, T/C [24]: 9.44% | viability, T/C [25]: 13.7% | viability, T/C [26]: 5.99% | viability, T/C [27]: 2.02% | viability, T/C [28]: 0.27% | viability, T/C [29]: 0.25% | viability, T/C [30]: 0.32%

Cc1sc2c(c1C)C(c1ccc(Cl)cc1)=NC(CC(=O)Nc1ccc(O)cc1)c1nnc(C)n1-2 (stereo not given) + COc1cc2c(cc1O)CCNC21CSC2c3c(OC(C)=O)c(C)c4c(c3C(COC1=O)N1C(O)C3Cc5cc(C)c(OC)c(O)c5C(C21)N3C)OCO4
IC50 (second compound 30 pM): > 3 µM | IC50 (second compound 94.9 pM): > 3 µM | IC50 (second compound 0.0003 µM): > 3 µM | IC50 (second compound 0.000949 µM): 0.772 µM | IC50 (second compound 0.003 µM): < 0.00949 µM | viability, T/C (second compound 30 pM, first compound 0.00949 µM): 109% | viability, T/C (second compound 30 pM, first compound 0.03 µM): 112% | viability, T/C (second compound 30 pM, first compound 0.0949 µM): 113% | viability, T/C (second compound 30 pM, first compound 0.3 µM): 103% | viability, T/C (second compound 30 pM, first compound 0.949 µM): 94% | viability, T/C (second compound 30 pM, first compound 3 µM): 83% | viability, T/C (second compound 94.9 pM, first compound 0.00949 µM): 106% | viability, T/C (second compound 94.9 pM, first compound 0.03 µM): 107% | viability, T/C (second compound 94.9 pM, first compound 0.0949 µM): 109% | viability, T/C (second compound 94.9 pM, first compound 0.3 µM): 103% | viability, T/C (second compound 94.9 pM, first compound 0.949 µM): 93.4% | viability, T/C (second compound 94.9 pM, first compound 3 µM): 70.2% | viability, T/C (second compound 0.0003 µM, first compound 0.00949 µM): 102% | viability, T/C (second compound 0.0003 µM, first compound 0.03 µM): 110% | viability, T/C (second compound 0.0003 µM, first compound 0.0949 µM): 103% | viability, T/C (second compound 0.0003 µM, first compound 0.3 µM): 97.1% | viability, T/C (second compound 0.0003 µM, first compound 0.949 µM): 85.2% | viability, T/C (second compound 0.0003 µM, first compound 3 µM): 72.4% | viability, T/C (second compound 0.000949 µM, first compound 0.00949 µM): 81.6% | viability, T/C (second compound 0.000949 µM, first compound 0.03 µM): 94.7% | viability, T/C (second compound 0.000949 µM, first compound 0.0949 µM): 88.7% | viability, T/C (second compound 0.000949 µM, first compound 0.3 µM): 76.9% | viability, T/C (second compound 0.000949 µM, first compound 0.949 µM): 44.3% | viability, T/C (second compound 0.000949 µM, first compound 3 µM): 26.3% | viability, T/C (second compound 0.003 µM, first compound 0.00949 µM): 24.1% | viability, T/C (second compound 0.003 µM, first compound 0.03 µM): 24.6% | viability, T/C (second compound 0.003 µM, first compound 0.0949 µM): 29.2% | viability, T/C (second compound 0.003 µM, first compound 0.3 µM): 20.9% | viability, T/C (second compound 0.003 µM, first compound 0.949 µM): 9.4% | viability, T/C (second compound 0.003 µM, first compound 3 µM): 1.27%

[2H]c1nc(C)nc([2H])c1-c1cc(NC[C@@H](C)c2cccc3c(C(=O)NC)ccnc23)ncn1 + COc1cc2c(cc1O)CCNC21CSC2c3c(OC(C)=O)c(C)c4c(c3C(COC1=O)N1C(O)C3Cc5cc(C)c(OC)c(O)c5C(C21)N3C)OCO4
IC50 (second compound 30 pM): > 10 µM | IC50 (second compound 94.9 pM): > 10 µM | IC50 (second compound 0.0003 µM): > 10 µM | IC50 (second compound 0.000949 µM): 6.59 µM | IC50 (second compound 0.003 µM): < 0.0316 µM | viability, T/C [1]: 106% | viability, T/C [2]: 105% | viability, T/C [3]: 102% | viability, T/C [4]: 107% | viability, T/C [5]: 102% | viability, T/C [6]: 98.7% | viability, T/C [7]: 106% | viability, T/C [8]: 102% | viability, T/C [9]: 99% | viability, T/C [10]: 98.2% | viability, T/C [11]: 97.6% | viability, T/C [12]: 99.5% | viability, T/C [13]: 97.6% | viability, T/C [14]: 94.8% | viability, T/C [15]: 93% | viability, T/C [16]: 88.5% | viability, T/C [17]: 98% | viability, T/C [18]: 91.3% | viability, T/C [19]: 78.6% | viability, T/C [20]: 76.5% | viability, T/C [21]: 71.1% | viability, T/C [22]: 66.2% | viability, T/C [23]: 56.2% | viability, T/C [24]: 46.2% | viability, T/C [25]: 18.6% | viability, T/C [26]: 22.6% | viability, T/C [27]: 18% | viability, T/C [28]: 18.1% | viability, T/C [29]: 11% | viability, T/C [30]: 3.59%
